Laboratory results as given in a melting point compilation (Tetko et al.; mined from patent text by program, amines drawn as free bases though some values may be those of a salt).

Row | Compound | melting point [°C]
1 | O=C1c2cc(Cl)c(Cl)cc2C(=O)c2c1c(Cl)c1cc(Cl)c(Cl)cc1c2Cl | > 260
2 | CN(C)C(=O)Nc1ccc(S(=O)(=O)CCc2ccccc2)c(Cl)c1 | 136 to 138
3 | O=C1c2cccnc2C(=O)N1Cc1ccccc1 | 163 to 165
4 | CCOC(=O)C(O)(Cc1ccc2ccccc2n1)C(=O)OCC | 71 to 72
5 | CC(=O)Oc1cc2nc(-c3ccccc3)nn2c2ccccc12 | 200 to 202
6 | CC1(c2ccccc2)CCC(=O)C=C1C(=O)O (racemic) | 206
7 | CC(C)c1cn2ccccc2c1S(=O)(=O)c1ccc(O)cc1 | 179 to 180
8 | N#CCOc1ccc(CN2C(=O)c3cccc(NC(=O)c4ccc(Cl)s4)c3C2=O)cc1 | 199
9 | O=C(CCl)c1cccnn1 | 104 to 106
10 | O=C(O)c1cc(=O)c2cc(C(F)(F)F)ccc2[nH]1 | 287 to 289
11 | CCCCC(CC)C(=O)Nc1ccc2ccn(Cc3ccc(C(=O)O)cc3OC)c2c1 (stereo unspecified) | 234 to 235
12 | O=c1[nH]nc(Cc2ccncc2)c2c1CCCC2 | 193 to 194
13 | CCCCCCCCCCCC1OC1C(=O)O (stereo unspecified) | 76 to 77
14 | O=C(NC(=O)c1c(F)cccc1F)Nc1cc(Cl)c(Oc2ccc(S(=O)(=O)c3ccc(Cl)cc3)cc2)c(Cl)c1 | 207 to 209
15 | CC(Oc1cccc2c1C(=O)N(C1CCC(=O)NC1=O)C2=O)c1ccc2ccccc2c1 (stereo unspecified) | 174 to 176
16 | CS(=O)(=O)c1ccc(-c2ccc(C(F)F)n2-c2ccc(F)cc2)cc1 | 111 to 112
17 | O=C(N1CCOCC1)N1CCN(Cc2ccc3c(c2)-c2[nH]nc(-c4ccsc4)c2C3)CC1 | 188 to 190
18 | CS(=O)(=O)Nc1ccc(N2CCN(Cc3ccc(-c4ccccc4)o3)CC2)cc1 | 178
19 | CCCC1=NC(=NOC(=O)NC)SC1(C)C | 112 to 114
20 | COc1ccc2c(c1)C(C)(CC(=O)O)C(=O)N2C (stereo unspecified) | 120 to 121
21 | O=C(Nc1ccc2[nH]c(=O)oc2c1)C(=O)N1CCC(Cc2ccc(F)cc2)CC1 | 224 to 227
22 | CN(C)C1(c2ccccc2)CCC(c2[nH]c3ccccc3c2Cc2ccccc2)CC1 (stereo unspecified) | 194 to 199
23 | O=C(NCc1ccc(Cl)c(Cl)c1)c1ccc2n1Cc1ccccc1N(C(=O)CSc1ccc(Br)cc1)C2 | 150
24 | Oc1c(CN2CCCC2)cc(Nc2ccccn2)cc1CN1CCCC1 | 158 to 159

Row | Compound | melting point [°C]
25 | O=C(C=Cc1cccc(O)c1)C=Cc1cccc(O)c1 | 190 to 195
26 | O=C(O)Cc1ccc2c(c1)C(=O)Cc1ccccc1O2 | 156 to 157
27 | NCCOc1ccc(O)cc1 | 175
28 | CC1(C)CCC(C)(C)c2cc(C(=O)c3ccc4cc(C(=O)O)ccc4c3)ccc21 | 224
29 | Fc1cc(CC2(Cc3ccnc(F)c3)c3ccccc3-c3nc(-c4ccccc4)ncc32)ccn1 | 213 to 215
30 | CC[C@@]12C[C@@](C)(O)[C@](O)(c3ccccc3)C[C@H]1CCc1cc(OCc3nnn[nH]3)ccc12 | 108 to 110
31 | Cc1c(C)c2c(c(C)c1NC(=O)CC(C)(C)C)C(c1ccc(CC(C)C)cc1)CO2 (stereo unspecified) | 153 to 154
32 | Cc1nc(NC(=O)c2cnn3c(C(F)(F)F)cc(-c4ccc(C(F)(F)F)c(OCC(F)(F)F)c4)nc23)sc1S(N)(=O)=O | 264
33 | CC(C)(C)c1ccc2oc(C(=O)CBr)cc2c1 | 100 to 102
34 | CC(C)CN1CCN(CCc2ccc(-c3cccc(N)n3)cc2)CC1 | 85 to 88
35 | CC(=O)N1CCc2ccc(C(=O)c3ccccc3)cc2C1 | 110 to 113
36 | COc1ccc2ccc(OS(=O)(=O)C(F)(F)F)c(-c3nnc(Cl)c4ccccc34)c2c1 | 140
37 | COc1ccc(Nc2nc(Nc3ccc(OC)c(Cl)c3)nc(OCC3CCCCC3)n2)cc1Cl | 188
38 | CC(C)Oc1ccc2ccc(C(N)=O)c(OC(C)C)c2c1 | 145 to 146
39 | COc1ccc2oc(Cc3cccc(F)c3)c(CC#N)c2c1 | 67
40 | CCCCCCCCC1C=CC(Oc2ccc(C(=O)O)o2)=C2N=C3CCCC(C)(C)C3=C21 (stereo unspecified) | 118 to 120
41 | COC(=O)COc1ccc(C(=O)CBr)c2ccccc12 | 99 to 101
42 | Cc1nnc(-c2ccc3occ(-c4cccc(C(F)(F)F)c4)c3c2)o1 | 126 to 127
43 | Cc1ccc(-c2ccc3c(c2)CC[C@H]2N(C)C(=O)CC[C@]32C)cc1 | 178
44 | CCCCCCCCCCCCc1nnn(CC(=O)Nc2ccc(F)cc2F)n1 | 103 to 106
45 | CCC(CC)N1C(=O)CCc2c(C)nc(Nc3ccc(C(C)C)cc3Br)nc21 | 124 to 126
46 | COC(=O)c1[nH]c2c(C)ccc(C)c2c1Br | 173 to 174
47 | COc1c(C)c(C)c(OC)c(C=CC(=O)C(=O)O)c1C | 126 to 127
48 | Cc1cccc(NC(=O)NCC(=O)N(CC(=O)OC(C)(C)C)c2ccccc2-c2ccccc2)c1 | 177

Row | Compound | melting point [°C]
49 | O=C(O)c1ccccc1OCCN1CCC(c2cn(Cc3ccco3)c3cc(F)ccc23)CC1 | 174 to 175
50 | Cc1cc(C)cc(C(=O)Cc2ccnc(NC(=O)OC(C)(C)C)c2)c1 | 133 to 136
51 | O=C(O)COc1ccc(OCCCCc2ccccc2)cc1 | 116 to 117
52 | COc1ccc(C(=O)Nc2nc3ccc(N)cc3c(NCc3cccs3)c2C#N)cc1 | 200 to 203
53 | CC12CC(O)CC1C1CCc3cc(O)ccc3C1C(c1ccccc1)C2 (stereo unspecified) | 241 to 247
54 | CC(=O)NCc1coc2c(OC(C)=O)cccc12 | 138 to 139
55 | CCC(C)(C)c1ccc(OCCCCNC(=O)c2[nH]c3ccc(OC)cc3c2N)c(C(C)(C)CC)c1 | 145 to 146
56 | Cc1ccc(NC(=O)CN2CCNCC2)cc1Nc1ncc(-c2cccnc2)o1 | 176 to 178
57 | Cc1ccc2c(c1)S(=O)(=O)N=CN2C1CC1 | 192 to 195
58 | O=C(Nc1ccc(F)cc1)c1ccccc1C(c1ccc(O)cc1)c1ccc(O)cc1 | 122 to 124
59 | O=C(c1ccccc1)c1ccc(NC(=O)C(O)(C(F)(F)F)C(F)(F)F)cc1 | 143 to 146
60 | Cc1ccc(Cn2cc(C(=O)C(=O)O)c3cc(-c4ccc(OC(F)(F)F)cc4)ccc32)cc1 | 192 to 193
61 | COc1ccc(-c2cc(Cl)c3ccccc3n2)cc1C | 90 to 92
62 | O=C1CCC(N2C(=O)c3cccc(CNC(=O)Nc4ccc5c(c4)OCO5)c3C2=O)C(=O)N1 (stereo unspecified) | 216 to 218
63 | O=C(NCCCCN1CCN(c2csc3cc(F)ccc23)CC1)c1ccc(F)cc1 | 161 to 163
64 | O=c1[nH]nc2n1C=Cc1cc(Cl)ccc1C2 | 281 to 283
65 | O=C1CCC(c2ccccc2)c2cc(Cl)ccc2N1 (stereo unspecified) | 184 to 186
66 | COc1cc(S(N)(=O)=O)cnc1Cl | 156 to 158
67 | CCCS(=O)c1ncc(C(F)(F)F)cc1Cl (stereo unspecified) | 51 to 53
68 | CS(=O)(=O)c1ccc(Nc2ccn(-c3ccccc3)n2)cc1 | 185 to 187
69 | COC(=O)c1ccc(OCC2CC(=O)N(c3ccc(C)cc3)C2)cc1 (stereo unspecified) | 110 to 112
70 | O=C(CC(=O)OCc1ccc([N+](=O)[O-])cc1)CC1CC(=O)N1 (stereo unspecified) | 50 to 52
71 | CN(C)CCCNC(=O)c1ccccc1-c1nnc(CSCCOc2ccccc2)o1 | 60 to 65
